Test results from patent publication US20250092017A1, “2-PIPERIDYL OR 2-PYRAZOLYL SUBSTITUTED PYRIMIDINE COMPOUND SERVING AS EGFR INHIBITOR” (SUZHOU PUHE BIOPHARMA CO., LTD., priority 2022, published 2025).
Read-outs that look alike come from different tables or passages of the source.

Assays:
Ba/F3-FL-EGFR = biological target: T1, Ba/F3-FL-EGFR (Homo sapiens, UniProt P00533); assay: CellTiter-Glo proliferation, Ba/F3-FL-EGFR; type: cell-based; settings: 72 hours, read-out: Ba/F3-FL-EGFR IC50/nM
T1 construct: FL read as full length
Procedure, shortened: (§1)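 Ba/F3 lines dependent on the indicated EGFR variants were treated with compounds at a final DMSO concentration of 0.1% at 37 °C, 5% CO2. Viability was read by CellTiter-Glo luminescence, and inhibition rate was normalised to DMSO-treated cells (max) and medium-only wells (min). IC50 came from inhibition curves.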

Ba/F3-FL-EGFR-L858R = Ba/F3-FL-EGFR-L858R (Homo sapiens, UniProt P00533, L858R, cells depend on it); assay: CellTiter-Glo proliferation, Ba/F3-FL-EGFR-L858R; type: cell-based; settings: 72 hours, read-out: Ba/F3-FL-EGFR-L858R IC50/nM
Procedure, shortened: as §1

[1] = biological target: T2, Ba/F3-TEL-EGFR-L858R-C797S (Homo sapiens, UniProt P00533, C797S/L858R, cells depend on it); assay: CellTiter-Glo proliferation, Ba/F3-TEL-EGFR-L858R-C797S; type: cell-based; settings: 72 hours, read-out: Ba/F3-TEL-EGFR-L858R-C797S IC50/nM
T2 construct: fused on or other part: N-terminal TEL (ETV6) oligomerising part fused to the EGFR intracellular/kinase part; P41212 (Transcription factor ETV6)
Procedure, shortened: as §1

[2] = biological target: Ba/F3-FL-EGFR-L858R-T790M-C797S (Homo sapiens, UniProt P00533, T790M/C797S/L858R, cells depend on it); assay: CellTiter-Glo proliferation, Ba/F3-FL-EGFR-L858R-T790M-C797S; type: cell-based; settings: 72 hours, read-out: Ba/F3-FL-EGFR-L858R-T790M-C797S IC50/nM
Procedure, shortened: as §1

[3] = tested on: Ba/F3-FL-EGFR-del19-C797S; assay: CellTiter-Glo proliferation, Ba/F3-FL-EGFR-del19-C797S; type: cell-based; settings: read-out: Ba/F3-FL-EGFR-del19-C797S IC50/nM
Procedure, shortened: as §1

[4] = biological target: Ba/F3-FL-EGFR-del19-T790M-C797S (Homo sapiens, UniProt P00533, DEL746-750/T790M/C797S, cells depend on it); assay: CellTiter-Glo proliferation, Ba/F3-FL-EGFR-del19-T790M-C797S; type: cell-based; settings: 72 hours, read-out: Ba/F3-FL-EGFR-del19-T790M-C797S IC50/nM
Chain of Ba/F3-FL-EGFR-del19-T790M-C797S (P00533 with tags, fused parts or gaps DEL746-750/T790M/C797S): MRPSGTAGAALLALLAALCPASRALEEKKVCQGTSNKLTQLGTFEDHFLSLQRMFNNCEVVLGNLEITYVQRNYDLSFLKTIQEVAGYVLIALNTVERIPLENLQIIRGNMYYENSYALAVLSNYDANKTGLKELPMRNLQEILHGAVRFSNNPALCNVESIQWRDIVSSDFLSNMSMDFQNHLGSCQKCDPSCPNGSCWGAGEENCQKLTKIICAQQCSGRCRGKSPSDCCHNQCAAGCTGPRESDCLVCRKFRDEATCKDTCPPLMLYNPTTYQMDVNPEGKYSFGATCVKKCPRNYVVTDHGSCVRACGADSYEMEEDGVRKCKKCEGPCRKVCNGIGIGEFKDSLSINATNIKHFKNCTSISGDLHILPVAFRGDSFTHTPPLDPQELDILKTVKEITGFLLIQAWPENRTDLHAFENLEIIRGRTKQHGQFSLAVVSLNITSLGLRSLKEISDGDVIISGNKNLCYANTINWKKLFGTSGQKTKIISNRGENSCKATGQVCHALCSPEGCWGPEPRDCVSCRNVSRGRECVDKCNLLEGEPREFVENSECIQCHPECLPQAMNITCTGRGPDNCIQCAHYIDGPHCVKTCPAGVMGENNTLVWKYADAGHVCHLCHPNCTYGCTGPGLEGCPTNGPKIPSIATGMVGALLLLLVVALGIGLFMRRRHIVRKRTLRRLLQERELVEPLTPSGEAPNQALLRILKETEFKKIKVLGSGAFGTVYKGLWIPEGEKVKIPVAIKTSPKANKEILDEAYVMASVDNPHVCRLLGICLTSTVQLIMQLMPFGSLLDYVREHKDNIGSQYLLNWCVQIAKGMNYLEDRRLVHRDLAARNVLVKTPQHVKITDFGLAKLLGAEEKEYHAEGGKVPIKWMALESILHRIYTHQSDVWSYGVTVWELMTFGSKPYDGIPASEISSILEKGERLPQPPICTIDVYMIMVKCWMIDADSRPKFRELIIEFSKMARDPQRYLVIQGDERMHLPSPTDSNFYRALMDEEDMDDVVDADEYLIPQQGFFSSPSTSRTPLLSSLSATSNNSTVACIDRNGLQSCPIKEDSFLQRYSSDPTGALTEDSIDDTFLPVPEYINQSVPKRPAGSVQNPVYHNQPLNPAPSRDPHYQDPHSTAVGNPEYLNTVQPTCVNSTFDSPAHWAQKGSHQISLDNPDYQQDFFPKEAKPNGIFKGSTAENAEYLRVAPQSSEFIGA
Protocol: Promega CellTiter-Glo reagent was used to detect the effects of small molecule inhibitors on the proliferation of three Ba/F3 cell lines (Ba/F3-FL-EGFR-de119, Ba/F3-FL-EGFR-de119-T790M, Ba/F3-FL-EGFR-de119-T790M-C797S).
The cell lines were cultured in an incubator at 37° C. and 5% CO2. Cells were passaged regularly and cells in the logarithmic phase were used for plating. 95 μL of cell suspension was added to each well of the cell plate, and culture medium without cells (containing 0.1% DMSO) was added to the Min control wells. Substance addition for compound detection cell plate: 5 μL of 20× compound working solution was added to the cell culture plate. 5 μL of DMSO-cell culture medium mixture was added to the Max control, with the final DMSO concentration of 0.1%. 5 μL of DMSO-cell culture medium mixture was added to the Max control. The final DMSO concentration was 0.1%.
Cell viability was detected by CellTiter-Glo luminescence assay. Data analysis:
The cell proliferation inhibition rate (Inhibition Rate) data was processed using the following formula: […]
wherein: RLUDrug represents the relative luminescence unit of the cells with the addition of drug, RLUMin represents the luminescence unit of the culture medium, and RLUMax represents the relative luminescence unit of the cells with the addition of DMSO.
The inhibition rates corresponding to different concentrations of compounds were calculated in EXCEL, and then the inhibition rate curve was plotted using GraphPad Prism software and related parameters including the maximum and minimum inhibition rates of cells and IC50 values were calculated.

[5] = biological target: Ba/F3-FL-EGFR-Del19 (E746-A750) (Homo sapiens, UniProt P00533, DEL746-750, cells depend on it); assay: CellTiter-Glo proliferation, Ba/F3-FL-EGFR-Del19; settings: read-out: Ba/F3-FL-EGFR-Del19 (E746-A750), 72 hours
[6] = biological target: Ba/F3-FL-EGFR-del19/T790M (Homo sapiens, UniProt P00533, DEL746-750/T790M, cells depend on it); assay: CellTiter-Glo proliferation, Ba/F3-FL-EGFR-del19/T790M; settings: read-out: Ba/F3-FL-EGFR-del19/T790M IC50/nM, 72 hours
Chain of Ba/F3-FL-EGFR-del19/T790M (P00533 with tags, fused parts or gaps DEL746-750/T790M): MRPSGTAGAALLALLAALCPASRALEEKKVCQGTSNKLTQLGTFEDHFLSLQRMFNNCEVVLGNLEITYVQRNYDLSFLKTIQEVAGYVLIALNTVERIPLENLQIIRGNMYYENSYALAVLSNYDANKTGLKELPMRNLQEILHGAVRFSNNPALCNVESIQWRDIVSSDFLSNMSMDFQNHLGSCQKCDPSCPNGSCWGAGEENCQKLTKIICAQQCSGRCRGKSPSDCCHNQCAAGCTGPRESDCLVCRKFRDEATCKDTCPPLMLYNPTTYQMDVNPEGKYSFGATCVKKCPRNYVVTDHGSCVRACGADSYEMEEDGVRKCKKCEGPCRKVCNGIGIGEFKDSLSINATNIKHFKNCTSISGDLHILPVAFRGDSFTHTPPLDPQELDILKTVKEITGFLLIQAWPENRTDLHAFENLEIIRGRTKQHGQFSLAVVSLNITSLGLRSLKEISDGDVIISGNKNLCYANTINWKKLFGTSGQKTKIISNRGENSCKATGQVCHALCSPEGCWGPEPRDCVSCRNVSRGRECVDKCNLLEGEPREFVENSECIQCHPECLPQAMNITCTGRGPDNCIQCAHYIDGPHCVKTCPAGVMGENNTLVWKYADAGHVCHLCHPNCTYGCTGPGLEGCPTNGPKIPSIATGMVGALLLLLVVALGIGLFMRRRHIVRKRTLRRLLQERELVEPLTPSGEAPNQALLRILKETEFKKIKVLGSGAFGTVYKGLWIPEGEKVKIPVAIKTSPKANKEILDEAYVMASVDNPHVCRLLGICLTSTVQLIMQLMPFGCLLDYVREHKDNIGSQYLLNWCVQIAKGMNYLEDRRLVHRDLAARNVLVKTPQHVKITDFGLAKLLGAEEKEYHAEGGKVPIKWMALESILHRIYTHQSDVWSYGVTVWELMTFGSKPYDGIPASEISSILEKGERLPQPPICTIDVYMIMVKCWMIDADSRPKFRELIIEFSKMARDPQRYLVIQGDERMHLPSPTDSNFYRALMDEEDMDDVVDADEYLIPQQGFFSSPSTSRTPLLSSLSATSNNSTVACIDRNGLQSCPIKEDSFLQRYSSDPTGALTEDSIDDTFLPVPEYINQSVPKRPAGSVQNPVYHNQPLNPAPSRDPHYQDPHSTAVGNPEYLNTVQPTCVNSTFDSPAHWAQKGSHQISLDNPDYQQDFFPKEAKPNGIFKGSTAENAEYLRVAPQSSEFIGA

EGFR (wild-type) = EGFR (wild-type) (Homo sapiens, UniProt P00533); assay: MSA (Mobility Shift Assay) kinase activity, EGFR wild type; type: biochemical; settings: read-out: EGFR wt/ IC50/nM
Protocol: (§2) The MSA (Mobility Shift Assay) method was used to detect the effects of small molecule inhibitors on the kinase activity of EGFR wild type and its mutants (EGFR^wt, EGFR-L858R, EGFR-L858R-T790M-C797S, EGFR-L858R-C797S).
(§3) 10 μL of kinase solution at 2.5 times the final concentration was added to the compound wells and positive control Max wells; 10 μL of 1x kinase buffer was added to the negative control Min wells. The mixture was centrifuged at 1000 rpm for 30 seconds, and the reaction plate was shaken to mix the solution well and then incubated at room temperature for 10 minutes. A mixed solution of ATP and kinase substrate at 5/3 times the final concentration was prepared in 1x kinase buffer. 15 μL of a mixed solution of ATP and substrate at 5/3 times the final concentration was added to initiate the reaction. The 384-well plate was centrifuged at 1000 rpm for 30 seconds, and shaken to mix the solution well and then incubated at room temperature for the corresponding time. 30 μL of stop detection solution was added to stop the kinase reaction, and the mixture was centrifuged at 1000 rpm for 30 seconds, and then to mixed well by shaking. The conversion rate was read using Caliper EZ Reader.
(§4) wherein: Conversion %_sample is the conversion rate reading of the sample; Conversion %_min is the mean of the negative control wells, representing the conversion rate reading of the wells without enzyme activity; Conversion %_max is the mean of the positive control wells, representing the conversion rate reading of the wells without compound inhibition.
(§5) The log (inhibitor) vs. response —Variable slope of the analysis software GraphPad Prism 5 was used to fit the dose-effect curve, where the log value of the concentration was used as the X-axis and the percentage inhibition rate was used as the Y-axis, to obtain the IC50 value of each compound on the enzyme activity.
(§6) The calculation formula is Y=Bottom+(Top-Bottom)/(1+10^((Log IC50−X)*Hill Slope))

EGFR (L858R/C797S) = EGFR (L858R/C797S) (Homo sapiens, UniProt P00533, C797S/L858R); assay: MSA (Mobility Shift Assay) kinase activity, EGFR-L858R-C797S; type: biochemical
Chain of EGFR (L858R/C797S) (P00533 25-1210 C797S/L858R): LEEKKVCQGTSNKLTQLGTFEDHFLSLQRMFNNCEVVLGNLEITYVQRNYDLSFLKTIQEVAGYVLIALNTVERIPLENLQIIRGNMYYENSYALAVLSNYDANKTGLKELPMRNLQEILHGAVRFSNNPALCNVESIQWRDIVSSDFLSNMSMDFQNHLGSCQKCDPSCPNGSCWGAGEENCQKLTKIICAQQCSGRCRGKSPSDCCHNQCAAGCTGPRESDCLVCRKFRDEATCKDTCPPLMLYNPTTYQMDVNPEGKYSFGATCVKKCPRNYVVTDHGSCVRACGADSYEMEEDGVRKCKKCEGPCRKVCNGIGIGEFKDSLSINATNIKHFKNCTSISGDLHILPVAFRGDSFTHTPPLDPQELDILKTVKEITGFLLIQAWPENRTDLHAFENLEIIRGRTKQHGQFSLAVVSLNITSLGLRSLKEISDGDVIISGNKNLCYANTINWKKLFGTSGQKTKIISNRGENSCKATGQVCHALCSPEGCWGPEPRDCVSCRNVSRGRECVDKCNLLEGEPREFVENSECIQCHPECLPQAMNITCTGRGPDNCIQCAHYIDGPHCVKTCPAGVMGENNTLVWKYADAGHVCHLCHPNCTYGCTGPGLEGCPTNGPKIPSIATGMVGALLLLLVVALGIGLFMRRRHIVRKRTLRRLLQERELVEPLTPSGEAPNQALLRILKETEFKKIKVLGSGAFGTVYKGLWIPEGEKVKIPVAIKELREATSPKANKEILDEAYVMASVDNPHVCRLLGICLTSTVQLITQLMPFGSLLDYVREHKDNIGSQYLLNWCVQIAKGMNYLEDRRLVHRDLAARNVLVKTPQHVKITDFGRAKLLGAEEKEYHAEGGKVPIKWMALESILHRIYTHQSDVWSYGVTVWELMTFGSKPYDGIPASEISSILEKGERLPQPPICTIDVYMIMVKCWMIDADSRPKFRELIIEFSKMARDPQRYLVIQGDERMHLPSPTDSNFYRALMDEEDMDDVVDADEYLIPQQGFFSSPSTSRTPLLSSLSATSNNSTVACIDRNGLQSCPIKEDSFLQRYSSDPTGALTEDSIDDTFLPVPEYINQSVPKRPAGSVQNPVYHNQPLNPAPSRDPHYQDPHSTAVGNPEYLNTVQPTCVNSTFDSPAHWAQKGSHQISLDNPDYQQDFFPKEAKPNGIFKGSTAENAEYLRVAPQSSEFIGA
Protocol: as §2, §3, §4, §5, §6

EGFR (L858R/T790M/C797S) = EGFR (L858R/T790M/C797S) (Homo sapiens, UniProt P00533, C797S/L858R/T790M); assay: MSA (Mobility Shift Assay) kinase activity, EGFR-L858R-T790M-C797S; type: biochemical
Protocol: as §2, §3, §4, §5, §6

[7] = Liver microsome stability test, human; type: in vitro ADME; settings: human liver microsomes 0.5 mg/ml, compound 1 μM, NADPH 1 mM, within 60 minutes
Protocol: (§7) The compounds of the present disclosure were subjected to a liver microsome stability test. The compounds to be tested were co-incubated with liver microsomes of different species with or without the addition of NADPH. The final concentration of the compounds to be tested in the test system was 1 μM. The final concentration of NADPH was 1 mM, and the final concentration of liver microsomes was 0.5 mg/ml.

[8] = Liver microsome stability test, mouse; type: in vitro ADME; settings: mouse liver microsomes 0.5 mg/ml, compound 1 μM, NADPH 1 mM, within 60 minutes
Protocol: as §7

EGFR (L858R) = EGFR (L858R) (Homo sapiens, UniProt P00533, L858R); assay: MSA (Mobility Shift Assay) kinase activity, EGFR-L858R; type: biochemical
Chain of EGFR (L858R) (P00533 25-1210 L858R): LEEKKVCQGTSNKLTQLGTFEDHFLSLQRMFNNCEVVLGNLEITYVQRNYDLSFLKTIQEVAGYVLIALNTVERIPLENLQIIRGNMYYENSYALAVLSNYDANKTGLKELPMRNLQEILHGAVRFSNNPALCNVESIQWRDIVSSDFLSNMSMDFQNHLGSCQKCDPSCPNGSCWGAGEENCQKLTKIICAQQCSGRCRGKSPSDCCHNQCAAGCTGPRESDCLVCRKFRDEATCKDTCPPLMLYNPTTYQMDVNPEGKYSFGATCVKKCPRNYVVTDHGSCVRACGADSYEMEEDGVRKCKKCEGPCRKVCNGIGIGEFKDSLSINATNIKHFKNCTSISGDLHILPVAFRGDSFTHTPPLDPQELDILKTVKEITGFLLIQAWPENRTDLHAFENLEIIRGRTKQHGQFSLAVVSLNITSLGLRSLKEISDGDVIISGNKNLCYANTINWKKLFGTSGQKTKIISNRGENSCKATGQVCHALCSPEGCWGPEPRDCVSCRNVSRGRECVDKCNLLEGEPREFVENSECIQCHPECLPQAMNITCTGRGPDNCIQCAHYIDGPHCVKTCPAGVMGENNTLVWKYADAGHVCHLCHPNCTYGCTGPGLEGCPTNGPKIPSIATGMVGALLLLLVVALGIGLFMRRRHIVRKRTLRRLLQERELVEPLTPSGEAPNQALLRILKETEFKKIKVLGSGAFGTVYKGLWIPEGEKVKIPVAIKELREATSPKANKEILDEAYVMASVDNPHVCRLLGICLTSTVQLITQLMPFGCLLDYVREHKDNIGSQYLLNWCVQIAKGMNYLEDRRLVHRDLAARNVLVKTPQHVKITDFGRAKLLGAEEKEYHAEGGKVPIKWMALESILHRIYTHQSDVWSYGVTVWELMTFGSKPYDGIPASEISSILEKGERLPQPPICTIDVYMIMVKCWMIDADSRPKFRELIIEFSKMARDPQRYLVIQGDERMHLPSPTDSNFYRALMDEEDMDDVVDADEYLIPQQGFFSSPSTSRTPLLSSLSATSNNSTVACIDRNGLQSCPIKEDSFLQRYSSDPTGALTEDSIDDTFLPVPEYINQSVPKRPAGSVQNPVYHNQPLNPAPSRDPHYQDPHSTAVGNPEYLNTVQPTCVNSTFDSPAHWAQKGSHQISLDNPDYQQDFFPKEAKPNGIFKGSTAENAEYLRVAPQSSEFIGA
Protocol: as §2, §3, §4, §5, §6

[9] = tested on: BaF3 (del19/T790M1C797S) tumor cells; assay: In vivo efficacy assay in BALB/c nude mice, subcutaneous BaF3 tumor; settings: oral; for Tumor volume (mm^3): after 13 consecutive days of administration; for TGI: after 13 consecutive days, based on final tumor volume
Protocol: In vivo efficacy assay in BALB/c nude mice. Details were as follows:
BaF3 (del19/T790M1C797S) tumor cells were cultured and inoculated into 6-8 weeks old female BALB/c nude mice (weighing about 20 g), with all mice being subcutaneously inoculated. The mice were cultured in an SPF-grade experimental environment, and all mice had free access to commercially certified standard diets. When the average tumor volume of the mice grew to about 150 mm^3, the test compound was orally administered daily. The dosage was as follows: blank group vehicle (DMSO/Solutol/H2O, 5/10/85). […] The tumor volume was measured three times a week with a two-dimensional caliper, and the animals were weighed every day. […] The volume calculation formula is: V=1/2a*b^2, where a represents the long diameter of the tumor, and b represents the short diameter of the tumor.

[10] = 72 h, proliferation, 72 hours, CellTiter-Glo

SMILES | GI50 (Ba/F3-FL-EGFR) [nM] | GI50 (Ba/F3-FL-EGFR-L858R) [nM] | GI50 [1] [nM] | GI50 [2] [nM] | IC50 [3, 10] [nM] | GI50 [4] [nM] | GI50 [5] [nM] | GI50 [6] [nM] | IC50 (EGFR (wild-type)) [nM] | IC50 (EGFR (L858R/C797S)) [nM] | IC50 (EGFR (L858R/T790M/C797S)) [nM] | CLint scaled at 1 μM [7] [mL/min/kg] | CLint scaled at 1 μM [8] [mL/min/kg] | IC50 (EGFR (L858R)) [nM] | other results
CC(C)c1ccc(N2C[C@H](N(C)S(C)(=O)=O)[C@H]2C)c2cnc(Nc3ccnc(N4CC[C@H](O)[C@H](F)C4)n3)cc12 [Compound P41b] | 464 | 15 | 5.6 | 3.7 | 35 | 3.7 | 36 | 2.3 | – | – | – | – | – | – | –
CC(C)c1ccc(N2CC(CS(C)(=O)=O)C2)c2cnc(Nc3ccnc(-c4cnn(S(C)(=O)=O)c4)n3)cc12 [Compound H7] | 365 | 13 | 11 | 25 | 12 | – | – | – | 2.4 | 0.77 | 0.14 | 21.3 | 151 | – | –
CC(C)c1ccc(N2CC(NS(C)(=O)=O)C2)c2cnc(Nc3ccnc(N4CCC(O)C(F)C4)n3)cc12 (stereo not drawn) [Compound P21] | 1510 | 76 | 38.6 | 36 | 205 | – | – | – | 8.4 | 2.3 | 0.06 | 13.6 | 396 | 1.9 | –
COC1CCN(c2nccc(Nc3cc4c(C(C)C)ccc(N5CC(NS(C)(=O)=O)C5)c4cn3)n2)CC1F (stereo not drawn) [Compound P29] | 1090 | 41 | 13 | 13 | 202 | – | – | – | 8.4 | 2.5 | 0.07 | 23.4 | 440 | 1.3 | –
CC(C)c1ccc(N2CC(CS(C)(=O)=O)C2)c2cnc(Nc3ccnc(-c4cnn(S(=O)(=O)N(C)C)c4)n3)cc12 [Compound H19] | 559 | 64 | 36 | 123 | 57 | – | – | – | 7.4 | 4.6 | 0.4 | 17.2 | 61.8 | 2.9 | –
CC(C)c1ccc(N2C[C@H](N(C)S(C)(=O)=O)[C@H]2C)c2cnc(Nc3ccnc(N4CC[C@@H](O)[C@@H](F)C4)n3)cc12 [Compound P41a] | 693 | 22 | 7.1 | 4.6 | 57 | 5.9 | 54 | 3.2 | – | – | – | – | – | – | Tumor volume (mm^3) ([9]; 100 mg/kg, BID): 693 mm^3; TGI ([9]; 100 mg/kg, BID): 85%
C=CC(=O)Nc1cc(Nc2nccc(-c3cn(C)c4ccccc34)n2)c(OC)cc1N(C)CCN(C)C [Osimertinib, osimertinib, reference compound] | – | – | – | – | – | – | – | – | – | – | – | – | – | – | IC50 ([3]; 72 h): 906 nM; Tumor volume (mm^3) ([9]; 25 mg/kg, QD): 3110 mm^3; TGI ([9]; 25 mg/kg, QD): 20%
CC(C)c1ccc(N2C[C@H](CS(C)(=O)=O)[C@H]2C)c2cnc(Nc3ccnc(-c4cnn(S(C)(=O)=O)c4)n3)cc12 [Compound H30] | 259 | 10 | 8.9 | 21 | 9.2 | 7.8 | 15 | 5.1 | – | – | – | 11.7 | 145 | – | –
CC(C)c1ccc(N2CC(CS(C)(=O)=O)C2)c2cnc(Nc3ccnc(-c4cnn(S(=O)(=O)C5CC5)c4)n3)cc12 [Compound H1] | 101 | 5.9 | 3.1 | 16 | – | – | – | – | 3.9 | 1.5 | 0.4 | – | – | 1.6 | IC50 ([3]; proliferation, 72 hours, CellTiter-Glo): 10 nM; Human Clint/(mL/min/kg) [7]: <8.6 mL/min/kg; Mouse Clint/(mL/min/kg) [8]: 174 mL/min/kg
CC(C)c1ccc(N2CC(NS(C)(=O)=O)C2)c2cnc(Nc3ccnc(N4CCC(O)C(F)(F)C4)n3)cc12 (stereo not drawn) [Compound P30] | 2340 | 111 | 48 | 47 | 200 | – | – | – | 18.1 | 4.8 | 0.1 | < 8.6 | 230 | 3.5 | –
